According to patent US10919841B2, “Monoamine reuptake inhibitors” (Research Triangle Institute, priority 2009, dated 2021):
Where two headings read alike, the source gives them in different places.

How the values were obtained:
(h)DAT [1] = biological target: T1, (h)DAT (Homo sapiens, UniProt Q01959); test: competition binding with [125I]RTI-55 at (h)DAT stably expressed in HEK293 cells; conditions: mean ± standard error of three independent experiments
T1 construct: expressed in transfected cells

(h)DAT [2] = biological target: T1, (h)DAT; test: block of [3H]dopamine reuptake in HEK-(h)DAT cells; format: cell-based; conditions: for IC50: [3H]DA, read-out: IC50 for DA uptake inhibition; for times more potent than bupropion as DA uptake inhibitor: relative to bupropion
mice [3] = test: locomotor activity, 1-h observation protocol; format: in vivo; conditions: for Emax / ED50: Mus musculus; for Emax: 0.5 h, read-out: Locomotor Activity 1-Hour % Peak Cocaine; for ED50 / Locomotor Activity 1-Hour ED50: dose to produce 50% of the compound's maximal effect, 1-h
mice [4] = test: locomotor activity, 8-h time course protocol; format: in vivo; conditions: for Emax / ED50: Mus musculus; for Emax: read-out: Locomotor Activity 8-Hour % Peak Cocaine, percent of cocaine's maximal effect, 30 min period of maximum stimulation; for ED50: read-out: Locomotor Activity 8-Hour ED50; for Locomotor Activity 8-Hour Time, min Period, length: duration of locomotor activity; for Locomotor Activity 8-Hour Time, min Period, max: time period of maximum effect; for locomotor stimulant activity across the 1-h and 8-h protocols, in words: 1-h and 8-h tests compared; for onset and duration of locomotor activity, in words: mouse, in vivo
(h)NET [5] = biological target: T2, (h)NET (Homo sapiens, UniProt P23975); test: block of [3H]norepinephrine reuptake in HEK-(h)NET cells
rats [6] = test: cocaine discrimination (2-lever operant), i.p. administration; conditions: Rattus norvegicus, ip; for ED50: read-out: Full Generalization ED50
rats [7] = test: cocaine discrimination time-course study, oral administration; conditions: Rattus norvegicus, po, 0.75 h
(h)NET [8] = biological target: T2, (h)NET; test: competition binding with [125I]RTI-55 at (h)NET stably expressed in HEK293 cells; conditions: read-out: Binding, Ki NET; mean ± standard error of three independent experiments
(h)SERT [9] = biological target: T3, (h)SERT (Homo sapiens, UniProt P31645); conditions: mean ± standard error of three independent experiments; read-out: Binding, Ki SERT
T3 construct: expressed in transfected cells; host or cells: HEK293

(h)SERT [10] = biological target: T3, (h)SERT; test: block of [3H]serotonin reuptake in HEK-(h)SERT cells; format: cell-based
[11] = dose to produce 50% of the compound's maximal effect, 8-h
[12] = read-out: Uptake, IC50 [3H]NE, mean ± standard error of three independent experiments
[13] = read-out: % cocaine lever responding
[14] = read-out: IC50 for NE uptake inhibition, [3H]NE

T2 sequence (P23975 whole entry): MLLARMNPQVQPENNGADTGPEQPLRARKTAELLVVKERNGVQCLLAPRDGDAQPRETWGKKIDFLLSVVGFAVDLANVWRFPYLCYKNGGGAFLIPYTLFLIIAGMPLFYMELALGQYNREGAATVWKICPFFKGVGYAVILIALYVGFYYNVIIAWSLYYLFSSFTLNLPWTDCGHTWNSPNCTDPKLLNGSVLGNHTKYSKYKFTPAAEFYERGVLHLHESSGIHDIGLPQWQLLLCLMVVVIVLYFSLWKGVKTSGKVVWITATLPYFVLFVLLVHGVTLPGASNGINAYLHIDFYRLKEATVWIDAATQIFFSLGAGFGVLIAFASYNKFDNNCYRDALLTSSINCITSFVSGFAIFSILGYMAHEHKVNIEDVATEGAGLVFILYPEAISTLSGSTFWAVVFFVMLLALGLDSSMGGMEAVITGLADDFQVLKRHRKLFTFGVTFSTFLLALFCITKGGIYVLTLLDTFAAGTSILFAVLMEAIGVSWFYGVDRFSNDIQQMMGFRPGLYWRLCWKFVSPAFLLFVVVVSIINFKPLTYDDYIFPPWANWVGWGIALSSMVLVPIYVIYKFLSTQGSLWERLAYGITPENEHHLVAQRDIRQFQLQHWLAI
T3 sequence (P31645 whole entry): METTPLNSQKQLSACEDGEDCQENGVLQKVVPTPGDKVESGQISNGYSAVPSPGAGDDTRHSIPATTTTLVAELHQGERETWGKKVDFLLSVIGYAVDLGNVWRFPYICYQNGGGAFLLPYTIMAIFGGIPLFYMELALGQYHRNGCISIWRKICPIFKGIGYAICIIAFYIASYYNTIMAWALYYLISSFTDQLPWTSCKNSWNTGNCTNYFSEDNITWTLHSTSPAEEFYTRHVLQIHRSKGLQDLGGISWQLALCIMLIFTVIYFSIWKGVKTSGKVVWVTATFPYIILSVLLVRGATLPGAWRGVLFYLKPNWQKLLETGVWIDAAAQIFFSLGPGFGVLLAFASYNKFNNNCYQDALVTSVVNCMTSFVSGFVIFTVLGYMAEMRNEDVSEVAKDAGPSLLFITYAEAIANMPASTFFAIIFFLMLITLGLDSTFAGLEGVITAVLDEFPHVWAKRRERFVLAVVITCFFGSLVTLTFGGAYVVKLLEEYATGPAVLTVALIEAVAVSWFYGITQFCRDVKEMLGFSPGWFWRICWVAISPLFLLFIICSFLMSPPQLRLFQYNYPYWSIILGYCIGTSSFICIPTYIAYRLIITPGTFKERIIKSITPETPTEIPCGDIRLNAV
T1 sequence (Q01959 whole entry): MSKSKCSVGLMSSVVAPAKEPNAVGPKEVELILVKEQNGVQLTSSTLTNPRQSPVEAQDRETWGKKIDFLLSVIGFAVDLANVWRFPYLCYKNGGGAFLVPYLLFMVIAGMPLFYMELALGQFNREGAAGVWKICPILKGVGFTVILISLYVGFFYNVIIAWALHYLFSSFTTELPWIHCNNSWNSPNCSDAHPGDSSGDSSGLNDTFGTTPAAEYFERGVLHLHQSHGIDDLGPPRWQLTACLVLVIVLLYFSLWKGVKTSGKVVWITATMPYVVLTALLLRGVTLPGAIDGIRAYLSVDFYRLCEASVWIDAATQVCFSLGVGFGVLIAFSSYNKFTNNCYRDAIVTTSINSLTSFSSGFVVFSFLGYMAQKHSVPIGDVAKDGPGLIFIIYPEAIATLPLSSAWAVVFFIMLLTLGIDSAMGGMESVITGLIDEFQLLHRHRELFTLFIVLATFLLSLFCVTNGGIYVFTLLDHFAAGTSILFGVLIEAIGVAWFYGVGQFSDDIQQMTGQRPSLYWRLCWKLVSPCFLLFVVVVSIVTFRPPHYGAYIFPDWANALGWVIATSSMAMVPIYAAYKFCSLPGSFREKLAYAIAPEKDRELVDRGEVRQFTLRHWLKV

| Compound | Ki ((h)DAT [1]) [nM] | IC50 ((h)DAT [2]) [nM] | times more potent than bupropion as DA uptake inhibitor ((h)DAT [2]) [times] | Emax (mice [3]) [%] | ED50 (mice [3]) [mg/kg] | Emax (mice [4]) [%] | ED50 (mice [4]; [11]) [mg/kg] | Locomotor Activity 8-Hour Time, min Period, length (mice [4]) [min] | Locomotor Activity 8-Hour Time, min Period, max (mice [4]) [min] | IC50 ((h)NET [5]; [12]) [nM] | responders at 5 mg/kg (rats [6]; [13]) [%] | responders at 10 mg/kg (rats [6]; [13]) [%] | responders at 25 mg/kg (rats [6]; [13]) [%] | ED50 (rats [6]) [mg/kg] | ED50 (rats [7]) [mg/kg] | Ki ((h)NET [8]) [nM] | locomotor stimulant activity across the 1-h and 8-h protocols, in words (mice [4]) | responders at 50 mg/kg (rats [6]; [13]) [%] | Ki ((h)SERT [9]) [nM] | Locomotor Activity 1-Hour ED50 (mice [3]) | other results |
| --- | --- | --- | --- | --- | --- | --- | --- | --- | --- | --- | --- | --- | --- | --- | --- | --- | --- | --- | --- | --- | --- |
| CCCCC(NC(C)(C)C)C(=O)c1cccc(Cl)c1 (centres unmarked) [Compound 2q, 2-(N-tert-Butylamino)-3′-chlorohexanophenone] | 350 | 69 | 14 | 81 | 13.5 | 110 | 13.1 | 40 to 460 | 0 to 30 | 400 | 1 | 67 | 10 | 8.17 | 37.9 | 3190 |  |  |  |  |  |
| CCCCCCC(NC(C)(C)C)C(=O)c1cccc(Cl)c1 (centres unmarked) [Compound 2s, 2-(N-tert-Butylamino)-3′-chlorooctanophenone] | 510 | 135 |  | 61 | 33.3 | 60 | 9 | 130 to 140 | 110 to 140 | 4890 | 0 | 0 | 49 |  | 37.9 | 2580 | weak stimulants in both tests | 50 |  |  | responders at 100 mg/kg (rats [6]; [13]): 67% |
| CC(C)CC(NC(C)(C)C)C(=O)c1cccc(Cl)c1 (centres unmarked) [Compound 2t, 2-(N-tert-Butylamino)-3′-chlorophenyl-4-methylpentanophenone] | 140 | 440 |  |  |  |  |  | 320 | 260 to 290 | 360 |  |  |  |  |  | 2300 | weak stimulants in both tests |  | 6200 | 47.7 mg/kg | IC50 ((h)SERT [10]; bound given in μM, read-out: Uptake, IC50 [3H]5-HT): > 10 µM; Locomotor Activity 1-Hour % Peak Cocaine (mice [3]; maximal effect as percent of cocaine's maximal effect in the first 30 min): 62%; Locomotor Activity 8-Hour ED50 (mice [4]; [11]): 22.1 mg/kg; onset and duration of locomotor activity, in words (mice [4]): very slow onset of stimulatory activity; Locomotor Activity 8-Hour % Peak Cocaine (mice [4]; percent of cocaine's maximal effect, 30 min period of maximum stimulation): 35% |
| CCCNC(C)C(=O)c1cccc(Cl)c1 (centres unmarked) [Compound 2v, 2-(N-Propylamino)-3′-chloropropiophenone] |  |  |  |  |  |  |  |  |  |  |  |  |  |  |  |  |  |  |  | NE^f | DA uptake inhibition, in words ((h)DAT [2]): inactive; 5HT uptake inhibition, in words ((h)SERT [10]): inactive; Locomotor Activity 8-Hour ED50 (mice [4]; [11]): NE^f; NE uptake inhibition, in words ((h)NET [5]): inactive |
| CC(NC1CCC1)C(=O)c1cccc(Cl)c1 (centres unmarked) [Compound 2y, 2-(N-Cyclobutylamino)-3′-chloropropiophenone] | 343 | 258 | 3.7 |  |  |  |  |  |  | 86 |  |  |  |  |  | 1800 |  |  | 3450 |  | IC50 ((h)SERT [10]; [3H]5HT, read-out: IC50 for 5HT uptake inhibition): 0.185 µM; IC50 ((h)NET [5]; [14]): 86 nM; times better as NE uptake inhibitors than bupropion ((h)NET [5]; relative to bupropion): 17 times |
| CC(NC1CCCC1)C(=O)c1cccc(Cl)c1 (centres unmarked) [Compound 2z, 2-(N-Cyclopentylamino)-3′-chloropropiophenone] | 2200 | 980 |  | 110 | 10.6 | 110 |  | 330 to 340 | 0 to 30 |  | 2 | 0 | 66 | 10.8 | 8.28 | 5700 | strong stimulants in both studies | 83 |  |  | 5HT uptake inhibition, in words ((h)SERT [10]): totally inactive; ED50 (mice [4]; 8 h): 10.6 mg/kg; onset and duration of locomotor activity, in words (mice [4]): long durations of action; IC50 ((h)NET [5]; [14]): 221 nM |
